CC(=O)N1CCC[C@H]1C(=O)O
solubility (mole fraction)
Settings	283.15 K	288.15 K	293.15 K	298.15 K	303.15 K	313.15 K	323.15 K
in 1,4-dioxane	–	0.0237	0.0291	–	0.0416	0.0673	0.13
in 2-butanone	0.0113	–	0.0161	–	0.0237	0.0339	0.0553
in acetone	0.0158	–	0.0247	–	0.0348	0.0484	0.0673
in acetonitrile	0.0159	–	0.0335	–	0.0558	0.131	0.255
in dichloromethane	0.0336	0.0448	0.0609	0.0785	0.0974	–	–
in ethanol	0.0754	–	0.111	–	0.156	0.219	0.278
in ethyl acetate	0.00368	–	0.00634	–	0.0096	0.0133	0.0201
in isobutanol	0.0448	–	0.0643	–	0.106	0.146	0.2
in isopropanol	0.0448	–	0.0732	–	0.099	0.143	0.177
in methanol	0.122	–	0.166	–	0.21	0.291	0.406
in methyl acetate	0.00602	–	0.00997	–	0.0147	0.0213	0.0322
in n-butanol	0.0412	–	0.059	–	0.0877	0.133	0.199
in n-pentanol	0.0377	–	0.0532	–	0.075	0.111	0.158
in n-propanol	0.0961	–	0.14	–	0.195	0.267	0.334
in sec-butanol	0.0429	–	0.062	–	0.0915	0.132	0.189
in water	0.0127	–	0.0188	–	0.0269	0.042	0.0738

From BigSolDB 2.1
